Numbers after ± are expanded uncertainties.
Conditions: Liquid

| SMILES | vapor or sublimation pressure (498.15 K) [kPa] | vapor or sublimation pressure (523.15 K) [kPa] | vapor or sublimation pressure (553.15 K) [kPa] | vapor or sublimation pressure (583.15 K) [kPa] | vapor or sublimation pressure (613.15 K) [kPa] | vapor or sublimation pressure (638.15 K) [kPa] | vapor or sublimation pressure (653.15 K) [kPa] |
| --- | --- | --- | --- | --- | --- | --- | --- |
| CCc1ccccc1 [ethylbenzene] | 681 ± 37 | 1027 ± 54 | 1601 ± 83 | 2387 ± 120 | 3451 ± 180 | – | – |
| c1ccc2ncccc2c1 [quinoline] | – | 135 ± 8 | 245 ± 13 | 416 ± 22 | 668 ± 35 | 955 ± 49 | 1166 ± 60 |

— the NIST ThermoML archive (doi:10.1021/je034107o)
